Measured values taken from US20110039784A1, “COMPOSITION FOR TREATMENT OF ERECTILE DYSFUNCTION” (SUNGKYUNKWAN UNIVERSITY Foundation for Corporate …, priority 2009, published 2011).
Positions count from the first letter of the chain named. Each block holds one compound with its values, some of them ahead of it. Ends that are not written are not given here.

Key:
[1] = test system: corporal smooth muscle cells; experiment: Fura-2 intracellular calcium level in cultured corporal smooth muscle cells, ET-1 induced; type: cell-based, human; details: control corporal smooth muscle cells, n=3
Experimental: After fura-2 was loaded thereto, cultured corporal smooth muscle cells were measured for intracellular calcium levels. The extracellular addition of 50 nM endothelin-1 induced an increase in intracellular calcium level, with the separation of an initial increasing phase and a late constant phase (FIG. 7A).
Between the TRPC6 cDNA-transfected cells and the control cells, there are little differences in the initial phase. […] Intracellular calcium levels were also measured in the corporal smooth muscle cells where the dominant negative form of TRPC6 was expressed. […] Collectively, F340/380, accounting for ET-1-induced calcium increase, was measured to be 1.47±0.03 (n=3) in corporal smooth muscle cells (control), 1.53±0.09 (n=3) in corporal smooth muscle cells where TRPC6 was overexpressed, and 0±0 (n=3) in corporal smooth muscle cells where the dominant negative form of TRPC6 was expressed (FIG. 7D).

TRPC6 ion channel [2] = target: T1, TRPC6 ion channel (Mus musculus, UniProt Q61143); experiment: Whole-cell patch clamp in HEK 293 cells transfected with wild-type TRPC6; type: cell-based; details: for whole-cell current at −100 mV: TRPC6-transfected HEK cells, n=5; for change of whole-cell current on application: membrane potential held at −60 mV, symmetrical 140 mM Cs, 200 μM PE or 100 μM CCh
T1 construct: expressed in transfected cells; host or cells: HEK 293
T1 sequence (Q61143 1-930): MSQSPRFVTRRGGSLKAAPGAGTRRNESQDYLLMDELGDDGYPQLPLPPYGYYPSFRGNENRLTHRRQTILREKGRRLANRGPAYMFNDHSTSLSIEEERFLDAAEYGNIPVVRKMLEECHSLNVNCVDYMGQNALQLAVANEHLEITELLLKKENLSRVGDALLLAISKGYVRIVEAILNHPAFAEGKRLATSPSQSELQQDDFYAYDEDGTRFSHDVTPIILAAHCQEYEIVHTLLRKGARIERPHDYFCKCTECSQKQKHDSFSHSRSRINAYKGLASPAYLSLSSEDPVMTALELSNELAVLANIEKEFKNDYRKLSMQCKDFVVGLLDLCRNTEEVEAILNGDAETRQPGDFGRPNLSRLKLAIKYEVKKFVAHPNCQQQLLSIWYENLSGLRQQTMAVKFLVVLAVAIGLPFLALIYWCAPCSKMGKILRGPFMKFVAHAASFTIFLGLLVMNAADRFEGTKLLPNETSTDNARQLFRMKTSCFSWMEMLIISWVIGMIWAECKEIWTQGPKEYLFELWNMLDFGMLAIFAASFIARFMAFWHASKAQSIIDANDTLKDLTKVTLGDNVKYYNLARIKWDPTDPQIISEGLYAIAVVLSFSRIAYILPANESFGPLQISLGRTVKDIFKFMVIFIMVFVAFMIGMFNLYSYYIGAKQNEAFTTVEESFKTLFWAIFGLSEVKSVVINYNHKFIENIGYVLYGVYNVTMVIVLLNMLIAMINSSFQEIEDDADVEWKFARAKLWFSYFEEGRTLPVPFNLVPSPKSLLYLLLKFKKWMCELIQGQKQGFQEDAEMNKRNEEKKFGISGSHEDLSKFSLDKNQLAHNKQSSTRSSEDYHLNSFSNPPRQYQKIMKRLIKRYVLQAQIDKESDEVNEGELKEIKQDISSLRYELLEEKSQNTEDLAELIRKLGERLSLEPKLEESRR
Experimental: The physiological function of the TRPC6 ion channel was examined in HEK cells which are free of ion channels. In this regard, GFP-TRPC6 pcDNA was transfected into HEK cells using a liposome and expressed therein. After the membrane potential was held at −60 mV, whole-cell currents were recorded in symmetrical 140 mM Cs conditions. […] At −100 mV, the current was −112.0±18.1 pA (n=5) in a 140 mM extracellular Cs condition, −90.0±15.0 pA (n=5) after adding 200 μM PE, and −460±169.5 pA (n=5) after adding 100 μM CCh. […] The PE/CCh-induced current was obtained after leak subtraction was performed (FIG. 3C).

maxi-K ion channel [3] = experiment: Whole-cell patch clamp in human corporal smooth muscle cells expressing rslo gene; type: cell-based, rat; details: rslo-expressed human corporal smooth muscle cells
Excerpt: As described with HEK cells, the rslo pcDNA was expressed. The ion channels were examined for activity using a whole-cell patch clamp technique. Under the condition of a pipette solution having a calcium concentration of pCa 6.5, the current was 60.1±7.2 pA/pF (n=22) at a membrane potential of +60 mV in the rslo-expressed cells, which increased in outward current four-fold compared to that of control (16.4±2 pA/pF n=9) (FIG. 9A). Under the condition of an intracellular calcium concentration of pCa 7, the current was 12.8±2 pA/pF (+60 mV, n=9) in the control and 38.1±7 pA/pF (+60 mV, n=13) in the rslo-expressed cells (FIG. 9B). […] The current-voltage (I-V) relationship was similar to that recorded in the HEK cells.

maxi-K ion channel [4] = target: T2, maxi-K ion channel (Rattus norvegicus, UniProt Q62976); experiment: Whole-cell patch clamp in HEK 293 cells expressing rslo gene; type: cell-based; details: rslo-expressed HEK cells
T2 construct: GFP; expressed in transfected cells; host or cells: HEK 293
Excerpt: The maxi-K ion channel is known to play an important role in reducing the contraction of smooth muscle responsible for the modulation of penile erection and relaxation. Together with GFP, the α-subunit (rSlo) coding sequence of calcium-dependent potassium ion channel cloned from the rat brain was subcloned into pcDNA3.1(+). After the expression of rSlo gene in HEK cells, green-fluorescent cells were selected under a mercury lamp light and observed for the electrophysiological properties of the ion channels using a whole-cell patch clamp technique. Cells were used within 24˜48 hrs after expression. […] At an intracellular calcium level of pCa 7, the current was read 10.4±3.2 pA/pF (+60 mV, n=6) in the control and 100.5±15.4 pA/pF (n=6) in the rslo-expressed cells (FIG. 8B).

TRPC6 ion channel [5] = target: T3, TRPC6 ion channel (Mus musculus, UniProt Q61143); experiment: Whole-cell patch clamp in human corporal smooth muscle cells transfected with wild-type or dominant negative TRPC6; type: cell-based; details: after ET-1, 1 mM La^3+
T3 construct: expressed in transfected cells; host or cells: human corporal smooth muscle cells
T3 sequence (Q61143 1-930 A105V/R114W/A184S/Y371D/R436P/G437R/T905S): T1 sequence (Q61143 1-930) with A105V, R114W, A184S, Y371D, R436P, G437R, T905S
Experimental: As described with HEK cells, the wild-type TRPC6 cDNA was expressed. After being selected, green-fluorescent cells were examined for the activity of the ion channel using a whole-cell patch clamp technique. At the −60 mV holding membrane potential with the external solution changed from Na-rich normal tyrode solution to 140 mM Cs, the inward current was increased; whereas no currents changed upon external treatment with ET-1, a typical inducer of smooth muscle contraction. At −100 mV, the current was −535.9±162.4 pA (n=5) in 140 mM extracellular Cs, and −462.1±150.5 pA (n=5) after adding 100 nM ET-1. The current-voltage (I-V) relationship of corporal smooth muscle cells was similar to that of HEK cells activated by CCh. […] (FIG. 4)
For genetic regulation of the TRPC6 ion channel in corporal smooth muscle cells, the cells transfected with the dominant negative form of the TRPC6 ion channel were examined for electrophysiological function.

T2 sequence (Q62976 whole entry): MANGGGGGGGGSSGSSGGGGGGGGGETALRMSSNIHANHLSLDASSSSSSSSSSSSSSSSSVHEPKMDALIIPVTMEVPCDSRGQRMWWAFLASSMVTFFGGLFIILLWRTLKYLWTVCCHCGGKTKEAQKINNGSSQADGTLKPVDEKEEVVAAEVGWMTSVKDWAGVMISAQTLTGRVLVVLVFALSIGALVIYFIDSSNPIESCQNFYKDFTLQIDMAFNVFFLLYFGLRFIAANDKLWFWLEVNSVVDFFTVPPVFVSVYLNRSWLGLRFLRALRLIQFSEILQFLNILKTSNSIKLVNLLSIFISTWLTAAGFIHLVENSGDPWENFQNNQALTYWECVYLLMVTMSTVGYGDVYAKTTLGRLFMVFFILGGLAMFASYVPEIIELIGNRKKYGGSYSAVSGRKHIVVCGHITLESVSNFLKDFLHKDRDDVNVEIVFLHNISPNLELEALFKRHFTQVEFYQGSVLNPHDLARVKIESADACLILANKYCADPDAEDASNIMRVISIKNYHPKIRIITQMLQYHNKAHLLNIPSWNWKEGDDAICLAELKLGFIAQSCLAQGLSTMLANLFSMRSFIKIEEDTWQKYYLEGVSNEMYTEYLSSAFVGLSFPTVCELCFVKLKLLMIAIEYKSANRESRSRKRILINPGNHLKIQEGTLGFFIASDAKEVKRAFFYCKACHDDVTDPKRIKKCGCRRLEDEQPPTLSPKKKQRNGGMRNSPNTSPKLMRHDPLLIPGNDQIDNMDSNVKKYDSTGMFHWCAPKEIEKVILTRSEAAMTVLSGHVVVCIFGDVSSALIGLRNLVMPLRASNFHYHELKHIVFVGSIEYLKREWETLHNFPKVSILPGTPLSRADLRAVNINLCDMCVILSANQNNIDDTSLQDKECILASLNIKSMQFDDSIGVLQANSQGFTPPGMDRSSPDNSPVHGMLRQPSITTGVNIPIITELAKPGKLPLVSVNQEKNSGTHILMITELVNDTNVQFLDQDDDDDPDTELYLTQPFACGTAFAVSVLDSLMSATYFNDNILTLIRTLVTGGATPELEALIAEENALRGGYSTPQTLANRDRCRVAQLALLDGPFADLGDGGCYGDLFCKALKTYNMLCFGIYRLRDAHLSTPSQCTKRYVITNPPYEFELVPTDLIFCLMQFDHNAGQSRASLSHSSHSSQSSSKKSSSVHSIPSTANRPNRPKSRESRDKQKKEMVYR

Compound: endothelin-1 (CSCSSLMDKECVYFCHLDIIW; ends and bridges not checked; cysteine pairing not given here; UniProt P05305 53-73, looked up) [ET-1, a typical inducer of smooth muscle contraction]
F340/380, accounting for ET-1-induced calcium increase [1]: 1.47±0.03

Compound: C[N+](C)(C)CCOC(N)=O [CCh, carbachol]
whole-cell current at −100 mV (TRPC6 ion channel [2]; after adding 100 μM CCh): −460±169.5 pA | change of whole-cell current on application (TRPC6 ion channel [2]): increased inward currents

Compound: CC[N+](CC)(CC)CC [TEA]
effect on outward current (maxi-K ion channel [3]): decreased in a dose-dependent manner | effect on outward current (maxi-K ion channel [4]): decreased in a dose-dependent manner

Further lines, results first:

effect on current (TRPC6 ion channel [5]): completely decreased
Compound: [La+3] [La^3+]

whole-cell current at −100 mV (TRPC6 ion channel [2]; after adding 200 μM PE): −90.0±15.0 pA | change of whole-cell current on application (TRPC6 ion channel [2]): nearly no currents changed
Compound: CNC[C@H](O)c1cccc(O)c1 [PE, phenylephrine]
